Measurements published in patent US11857592B2, “Polygala extract for the treatment of attention-deficit hyperactivity disorder” (BioLite, Inc., priority 2020, dated 2024).

Test system: ICR male mice
Assay: In vivo tetrabenazine-induced hypothermia assay
Conditions: for activity discovered through in vivo tetrabenazine-induced hypothermia test: antidepressant-like activity in mice; for temperature recovery of TBZ-induced hypothermic response: oral gavage 60 min before TBZ 85 mg/kg i.p., 120 min after TBZ challenge
From the text: The around 70% of PDC-1421 in Example 1 are composed of sucroester (34%), saponin (18%) and xanthone (17%). Some active compounds of in the powder product of Example 1, including polygalatenosides A/B/C (2nd fraction 1), ploygalaxanthone III, sibiricoses A5, and 7-O-methylmangiferin are also discovered through in vivo tetrabenazine-induced hypothermia test (one of rodent models for evaluating antidepressant-like activity in mice). Imipramine (as the positive control), PDC-1421, 1st Fraction 10-19, 1st Fraction 33, 2nd Fraction-1 (wherein the major components are polygalatenosides A/B/C), 2nd Fraction-3, TMCA, Polygalaxanthone III, Onjisaponin B, Sibiricose A5, 7-O-Methylmangiferin and Sibiricaxanthone B are dissolved in water for injection (WFI) and administered by oral gavage. The dosing volume is 10 mL/kg. Test substances and vehicle (WFI) are administered by oral gavage to groups of 8 ICR male mice weighing 23±3 g for 60 minutes, and then tetrabenazine (TBZ, 85 mg/kg) is injected intraperitoneally. Body temperature is recorded before (0 min), and 60, 90 and 120 min after TBZ challenge. Therefore, drug-induced hypothermia (e.g., TBZ and reserpine) animal model is a typical experiment to evaluate the activity of NRI on depression. Temperature recovery of TBZ-induced hypothermic response is considered as indication of a anti-depressant activity.

| Compound | activity discovered through in vivo tetrabenazine-induced hypothermia test | temperature recovery of TBZ-induced hypothermic response |
| --- | --- | --- |
| COc1cc2c(=O)c3c(O)c([C@@H]4O[C@H](CO[C@@H]5OC[C@](O)(CO)[C@H]5O)[C@@H](O)[C@H](O)[C@H]4O)c(O)cc3oc2cc1O [Polygalaxanthone III] | active | had a temperature recovery |
| COc1cc(/C=C/C(=O)O[C@H]2[C@H](O)[C@@H](CO)O[C@@]2(CO)O[C@H]2O[C@H](CO)[C@@H](O)[C@H](O)[C@H]2O)ccc1O [Sibiricoses A5, Sibiricose A5] | active | had a temperature recovery |
| COc1cc2c(=O)c3c(O)c([C@@H]4O[C@H](CO)[C@@H](O)[C@H](O)[C@H]4O)c(O)cc3oc2cc1O [7-O-Methylmangiferin] | active | had a temperature recovery |
